Results as given in the NIST ThermoML archive (doi:10.1021/je300853z).
Numbers after ± are expanded uncertainties.

Tests used:
[1] = excess molar enthalpy (molar enthalpy of mixing); xn = mol fraction of the nth substance listed; details: 101 kPa, Liquid, Calvet calorimetry
[2] = molar heat capacity at constant pressure; xn = mol fraction of the nth substance listed; details: 101 kPa, Liquid, Small sample (50 mg) DSC

CCCCCCCC[n+]1ccc2ccccc2c1.N#C[S-] [2-octylisoquinolinium thiocyanate] + O
Details	excess molar enthalpy [kcal/mol]	molar heat capacity at constant pressure [J/K/mol]
[1], 298.15 K, x1 = 0.2433	0.0308 ± 0.00043	–
[1], 298.15 K, x1 = 0.258	0.0292 ± 0.000406	–
[1], 298.15 K, x1 = 0.2745	0.0249 ± 0.000382	–
[1], 298.15 K, x1 = 0.2933	0.0158 ± 0.000311	–
[1], 298.15 K, x1 = 0.3149	0.00142 ± 0.000201	–
[1], 298.15 K, x1 = 0.3361	-0.0125 ± 0.000287	–
[1], 298.15 K, x1 = 0.3603	-0.0289 ± 0.000406	–
[1], 298.15 K, x1 = 0.3833	-0.0433 ± 0.000526	–
[1], 298.15 K, x1 = 0.4094	-0.0581 ± 0.000645	–
[1], 298.15 K, x1 = 0.4329	-0.0703 ± 0.000741	–
[1], 298.15 K, x1 = 0.4593	-0.08198 ± 0.000813	–
[1], 298.15 K, x1 = 0.4892	-0.09345 ± 0.000908	–
[1], 298.15 K, x1 = 0.5141	-0.1009 ± 0.00098	–
[1], 298.15 K, x1 = 0.5417	-0.1071 ± 0.00103	–
[1], 298.15 K, x1 = 0.5724	-0.1116 ± 0.00105	–
[1], 298.15 K, x1 = 0.6068	-0.1138 ± 0.00108	–
[1], 298.15 K, x1 = 0.6457	-0.113 ± 0.00108	–
[1], 298.15 K, x1 = 0.6742	-0.1107 ± 0.00105	–
[1], 298.15 K, x1 = 0.7053	-0.1052 ± 0.001	–
[1], 298.15 K, x1 = 0.7395	-0.09728 ± 0.000956	–
[1], 298.15 K, x1 = 0.7771	-0.08676 ± 0.00086	–
[1], 298.15 K, x1 = 0.7969	-0.0805 ± 0.000813	–
[1], 298.15 K, x1 = 0.8176	-0.0727 ± 0.000741	–
[1], 298.15 K, x1 = 0.8395	-0.0641 ± 0.000693	–
[1], 298.15 K, x1 = 0.8626	-0.0543 ± 0.000621	–
[1], 298.15 K, x1 = 0.887	-0.0445 ± 0.000526	–
[1], 298.15 K, x1 = 0.9128	-0.0332 ± 0.000454	–
[1], 298.15 K, x1 = 0.9401	-0.0211 ± 0.000359	–
[1], 298.15 K, x1 = 0.9691	-0.00755 ± 0.000263	–
[1], 303.15 K, x1 = 0.2439	0.0421 ± 0.000502	–
[1], 303.15 K, x1 = 0.2588	0.0373 ± 0.000478	–
[1], 303.15 K, x1 = 0.2756	0.0294 ± 0.000406	–
[1], 303.15 K, x1 = 0.2947	0.0165 ± 0.000311	–
[1], 303.15 K, x1 = 0.3133	0.00311 ± 0.000213	–
[1], 303.15 K, x1 = 0.3344	-0.0118 ± 0.000287	–
[1], 303.15 K, x1 = 0.3586	-0.0282 ± 0.000406	–
[1], 303.15 K, x1 = 0.3815	-0.043 ± 0.000526	–
[1], 303.15 K, x1 = 0.4076	-0.0583 ± 0.000645	–
[1], 303.15 K, x1 = 0.4311	-0.0707 ± 0.000741	–
[1], 303.15 K, x1 = 0.4575	-0.0829 ± 0.000837	–
[1], 303.15 K, x1 = 0.4873	-0.09441 ± 0.000932	–
[1], 303.15 K, x1 = 0.5122	-0.1021 ± 0.00098	–
[1], 303.15 K, x1 = 0.5398	-0.1087 ± 0.00103	–
[1], 303.15 K, x1 = 0.5706	-0.1138 ± 0.00108	–
[1], 303.15 K, x1 = 0.605	-0.1166 ± 0.0011	–
[1], 303.15 K, x1 = 0.644	-0.1169 ± 0.0011	–
[1], 303.15 K, x1 = 0.6725	-0.1147 ± 0.00108	–
[1], 303.15 K, x1 = 0.7038	-0.1107 ± 0.00105	–
[1], 303.15 K, x1 = 0.7381	-0.104 ± 0.001	–
[1], 303.15 K, x1 = 0.7758	-0.09393 ± 0.000908	–
[1], 303.15 K, x1 = 0.7957	-0.08795 ± 0.00086	–
[1], 303.15 K, x1 = 0.8165	-0.081 ± 0.000813	–
[1], 303.15 K, x1 = 0.8385	-0.0729 ± 0.000765	–
[1], 303.15 K, x1 = 0.8617	-0.0643 ± 0.000693	–
[1], 303.15 K, x1 = 0.8862	-0.055 ± 0.000621	–
[1], 303.15 K, x1 = 0.9122	-0.0435 ± 0.000526	–
[1], 303.15 K, x1 = 0.9397	-0.0304 ± 0.00043	–
[1], 303.15 K, x1 = 0.9689	-0.0157 ± 0.000311	–
[1], 308.15 K, x1 = 0.214	0.0641 ± 0.000693	–
[1], 308.15 K, x1 = 0.2281	0.0612 ± 0.000669	–
[1], 308.15 K, x1 = 0.2422	0.0562 ± 0.000621	–
[1], 308.15 K, x1 = 0.2581	0.0454 ± 0.000526	–
[1], 308.15 K, x1 = 0.2762	0.0311 ± 0.00043	–
[1], 308.15 K, x1 = 0.297	0.0144 ± 0.000311	–
[1], 308.15 K, x1 = 0.3176	-0.00142 ± 0.000201	–
[1], 308.15 K, x1 = 0.3411	-0.0193 ± 0.000335	–
[1], 308.15 K, x1 = 0.3636	-0.0349 ± 0.000454	–
[1], 308.15 K, x1 = 0.3892	-0.0516 ± 0.000574	–
[1], 308.15 K, x1 = 0.4124	-0.065 ± 0.000693	–
[1], 308.15 K, x1 = 0.4385	-0.0782 ± 0.000789	–
[1], 308.15 K, x1 = 0.4682	-0.0913 ± 0.000884	–
[1], 308.15 K, x1 = 0.493	-0.1001 ± 0.000956	–
[1], 308.15 K, x1 = 0.5207	-0.1083 ± 0.00103	–
[1], 308.15 K, x1 = 0.5517	-0.1147 ± 0.00108	–
[1], 308.15 K, x1 = 0.5866	-0.1193 ± 0.00112	–
[1], 308.15 K, x1 = 0.6262	-0.1207 ± 0.00112	–
[1], 308.15 K, x1 = 0.6554	-0.1195 ± 0.00112	–
[1], 308.15 K, x1 = 0.6876	-0.1164 ± 0.0011	–
[1], 308.15 K, x1 = 0.723	-0.1104 ± 0.00105	–
[1], 308.15 K, x1 = 0.7622	-0.1016 ± 0.00098	–
[1], 308.15 K, x1 = 0.7829	-0.09632 ± 0.000932	–
[1], 308.15 K, x1 = 0.8048	-0.08987 ± 0.000884	–
[1], 308.15 K, x1 = 0.8278	-0.0825 ± 0.000837	–
[1], 308.15 K, x1 = 0.8523	-0.0736 ± 0.000765	–
[1], 308.15 K, x1 = 0.8782	-0.0631 ± 0.000669	–
[1], 308.15 K, x1 = 0.9058	-0.0516 ± 0.000598	–
[1], 308.15 K, x1 = 0.9352	-0.039 ± 0.000502	–
[1], 308.15 K, x1 = 0.9665	-0.0244 ± 0.000382	–
[2], 278.15 K, x1 = 0.3977	–	248 ± 5
[2], 278.15 K, x1 = 0.5237	–	295 ± 6
[2], 278.15 K, x1 = 0.5945	–	334 ± 7
[2], 278.15 K, x1 = 0.7214	–	386 ± 8
[2], 278.15 K, x1 = 0.8097	–	423 ± 8
[2], 278.15 K, x1 = 0.8935	–	467 ± 9
[2], 283.15 K, x1 = 0.3977	–	250 ± 5
[2], 283.15 K, x1 = 0.5237	–	304 ± 6
[2], 283.15 K, x1 = 0.5945	–	337 ± 7
[2], 283.15 K, x1 = 0.7214	–	388 ± 8
[2], 283.15 K, x1 = 0.8097	–	426 ± 9
[2], 283.15 K, x1 = 0.8935	–	470 ± 9
[2], 288.15 K, x1 = 0.3977	–	251 ± 5
[2], 288.15 K, x1 = 0.5237	–	306 ± 6
[2], 288.15 K, x1 = 0.5945	–	340 ± 7
[2], 288.15 K, x1 = 0.7214	–	391 ± 8
[2], 288.15 K, x1 = 0.8097	–	429 ± 9
[2], 288.15 K, x1 = 0.8935	–	474 ± 9
[2], 293.15 K, x1 = 0.3977	–	253 ± 5
[2], 293.15 K, x1 = 0.5237	–	309 ± 6
[2], 293.15 K, x1 = 0.5945	–	342 ± 7
[2], 293.15 K, x1 = 0.7214	–	393 ± 8
[2], 293.15 K, x1 = 0.8097	–	432 ± 9
[2], 293.15 K, x1 = 0.8935	–	476 ± 10
[2], 298.15 K, x1 = 0.3977	–	255 ± 5
[2], 298.15 K, x1 = 0.5237	–	311 ± 6
[2], 298.15 K, x1 = 0.5945	–	344 ± 7
[2], 298.15 K, x1 = 0.7214	–	396 ± 8
[2], 298.15 K, x1 = 0.8097	–	434 ± 9
[2], 298.15 K, x1 = 0.8935	–	479 ± 10
[2], 303.15 K, x1 = 0.3977	–	257 ± 5
[2], 303.15 K, x1 = 0.5237	–	313 ± 6
[2], 303.15 K, x1 = 0.5945	–	347 ± 7
[2], 303.15 K, x1 = 0.7214	–	398 ± 8
[2], 303.15 K, x1 = 0.8097	–	437 ± 9
[2], 303.15 K, x1 = 0.8935	–	482 ± 10
[2], 308.15 K, x1 = 0.3977	–	258 ± 5
[2], 308.15 K, x1 = 0.5237	–	315 ± 6
[2], 308.15 K, x1 = 0.5945	–	349 ± 7
[2], 308.15 K, x1 = 0.7214	–	400 ± 8
[2], 308.15 K, x1 = 0.8097	–	439 ± 9
[2], 308.15 K, x1 = 0.8935	–	484 ± 10
[2], 313.15 K, x1 = 0.3977	–	260 ± 5
[2], 313.15 K, x1 = 0.5237	–	316 ± 6
[2], 313.15 K, x1 = 0.5945	–	351 ± 7
[2], 313.15 K, x1 = 0.7214	–	402 ± 8
[2], 313.15 K, x1 = 0.8097	–	441 ± 9
[2], 313.15 K, x1 = 0.8935	–	487 ± 10
[2], 318.15 K, x1 = 0.3977	–	261 ± 5
[2], 318.15 K, x1 = 0.5237	–	318 ± 6
[2], 318.15 K, x1 = 0.5945	–	353 ± 7
[2], 318.15 K, x1 = 0.7214	–	404 ± 8
[2], 318.15 K, x1 = 0.8097	–	441 ± 9
[2], 318.15 K, x1 = 0.8935	–	490 ± 10
[2], 323.15 K, x1 = 0.3977	–	261 ± 5
[2], 323.15 K, x1 = 0.5237	–	319 ± 6
[2], 323.15 K, x1 = 0.5945	–	355 ± 7
[2], 323.15 K, x1 = 0.7214	–	405 ± 8
[2], 323.15 K, x1 = 0.8097	–	442 ± 9
[2], 323.15 K, x1 = 0.8935	–	492 ± 10
[2], 328.15 K, x1 = 0.3977	–	262 ± 5
[2], 328.15 K, x1 = 0.5237	–	320 ± 6
[2], 328.15 K, x1 = 0.5945	–	357 ± 7
[2], 328.15 K, x1 = 0.7214	–	406 ± 8
[2], 328.15 K, x1 = 0.8097	–	443 ± 9
[2], 328.15 K, x1 = 0.8935	–	495 ± 10
[2], 333.15 K, x1 = 0.3977	–	263 ± 5
[2], 333.15 K, x1 = 0.5237	–	321 ± 6
[2], 333.15 K, x1 = 0.5945	–	358 ± 7
[2], 333.15 K, x1 = 0.7214	–	408 ± 8
[2], 333.15 K, x1 = 0.8097	–	443 ± 9
[2], 333.15 K, x1 = 0.8935	–	497 ± 10
[2], 338.15 K, x1 = 0.3977	–	263 ± 5
[2], 338.15 K, x1 = 0.5237	–	322 ± 6
[2], 338.15 K, x1 = 0.5945	–	360 ± 7
[2], 338.15 K, x1 = 0.7214	–	408 ± 8
[2], 338.15 K, x1 = 0.8097	–	442 ± 9
[2], 338.15 K, x1 = 0.8935	–	500 ± 10
